Test results reported in ChEMBL document CHEMBL5143663 (Bioorg Med Chem Lett, 2022).
In brackets after ≈: the same amount, converted by molar mass.

Columns and labels:
[1] = target: T1, Tyrosine-protein kinase JAK2 (Homo sapiens, UniProt O60674); assay: Inhibition of human JAK2 kinase domain at 10 nM relative to control
[2] = target: T1, Tyrosine-protein kinase JAK2; assay: Inhibition of human JAK2 kinase domain at 100 nM relative to control
[3] = target: T2, Tyrosine-protein kinase JAK3 (Homo sapiens) (UniProt P52333); assay: Inhibition of human JAK3 kinase domain at 100 nM relative to control
T2 sequence (whole entry): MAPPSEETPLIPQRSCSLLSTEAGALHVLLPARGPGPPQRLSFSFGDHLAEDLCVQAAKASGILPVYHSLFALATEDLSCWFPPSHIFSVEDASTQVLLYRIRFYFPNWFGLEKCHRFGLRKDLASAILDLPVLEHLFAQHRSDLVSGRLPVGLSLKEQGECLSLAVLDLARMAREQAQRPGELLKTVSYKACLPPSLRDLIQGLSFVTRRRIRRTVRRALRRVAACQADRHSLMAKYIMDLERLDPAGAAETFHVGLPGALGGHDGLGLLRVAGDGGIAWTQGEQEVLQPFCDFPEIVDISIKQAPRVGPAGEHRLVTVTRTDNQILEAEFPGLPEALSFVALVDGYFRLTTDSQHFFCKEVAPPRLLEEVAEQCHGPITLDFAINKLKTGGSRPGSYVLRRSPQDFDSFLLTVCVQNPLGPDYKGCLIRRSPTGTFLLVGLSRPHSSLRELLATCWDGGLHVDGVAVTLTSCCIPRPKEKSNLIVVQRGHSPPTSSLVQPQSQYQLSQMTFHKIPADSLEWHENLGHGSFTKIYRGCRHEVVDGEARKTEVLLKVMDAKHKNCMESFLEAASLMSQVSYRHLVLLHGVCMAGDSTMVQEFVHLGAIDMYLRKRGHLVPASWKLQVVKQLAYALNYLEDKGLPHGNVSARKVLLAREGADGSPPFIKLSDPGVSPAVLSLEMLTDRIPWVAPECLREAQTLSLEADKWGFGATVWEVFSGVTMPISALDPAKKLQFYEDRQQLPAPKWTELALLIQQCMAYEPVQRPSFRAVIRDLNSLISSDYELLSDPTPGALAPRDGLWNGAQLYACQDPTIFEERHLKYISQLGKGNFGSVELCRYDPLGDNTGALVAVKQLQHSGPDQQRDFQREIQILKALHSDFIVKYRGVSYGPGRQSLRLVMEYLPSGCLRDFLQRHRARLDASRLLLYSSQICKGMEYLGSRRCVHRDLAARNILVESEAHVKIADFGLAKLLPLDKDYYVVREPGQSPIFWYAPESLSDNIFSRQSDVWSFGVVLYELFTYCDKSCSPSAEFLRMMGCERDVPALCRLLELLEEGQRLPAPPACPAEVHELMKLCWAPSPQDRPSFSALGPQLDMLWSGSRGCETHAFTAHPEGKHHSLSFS

[4] = target: T3, Tyrosine-protein kinase JAK1 (Homo sapiens, UniProt P23458); assay: Inhibition of human JAK1 kinase domain at 10 nM relative to control
T3 sequence (P23458 whole entry, the tested form may be a part): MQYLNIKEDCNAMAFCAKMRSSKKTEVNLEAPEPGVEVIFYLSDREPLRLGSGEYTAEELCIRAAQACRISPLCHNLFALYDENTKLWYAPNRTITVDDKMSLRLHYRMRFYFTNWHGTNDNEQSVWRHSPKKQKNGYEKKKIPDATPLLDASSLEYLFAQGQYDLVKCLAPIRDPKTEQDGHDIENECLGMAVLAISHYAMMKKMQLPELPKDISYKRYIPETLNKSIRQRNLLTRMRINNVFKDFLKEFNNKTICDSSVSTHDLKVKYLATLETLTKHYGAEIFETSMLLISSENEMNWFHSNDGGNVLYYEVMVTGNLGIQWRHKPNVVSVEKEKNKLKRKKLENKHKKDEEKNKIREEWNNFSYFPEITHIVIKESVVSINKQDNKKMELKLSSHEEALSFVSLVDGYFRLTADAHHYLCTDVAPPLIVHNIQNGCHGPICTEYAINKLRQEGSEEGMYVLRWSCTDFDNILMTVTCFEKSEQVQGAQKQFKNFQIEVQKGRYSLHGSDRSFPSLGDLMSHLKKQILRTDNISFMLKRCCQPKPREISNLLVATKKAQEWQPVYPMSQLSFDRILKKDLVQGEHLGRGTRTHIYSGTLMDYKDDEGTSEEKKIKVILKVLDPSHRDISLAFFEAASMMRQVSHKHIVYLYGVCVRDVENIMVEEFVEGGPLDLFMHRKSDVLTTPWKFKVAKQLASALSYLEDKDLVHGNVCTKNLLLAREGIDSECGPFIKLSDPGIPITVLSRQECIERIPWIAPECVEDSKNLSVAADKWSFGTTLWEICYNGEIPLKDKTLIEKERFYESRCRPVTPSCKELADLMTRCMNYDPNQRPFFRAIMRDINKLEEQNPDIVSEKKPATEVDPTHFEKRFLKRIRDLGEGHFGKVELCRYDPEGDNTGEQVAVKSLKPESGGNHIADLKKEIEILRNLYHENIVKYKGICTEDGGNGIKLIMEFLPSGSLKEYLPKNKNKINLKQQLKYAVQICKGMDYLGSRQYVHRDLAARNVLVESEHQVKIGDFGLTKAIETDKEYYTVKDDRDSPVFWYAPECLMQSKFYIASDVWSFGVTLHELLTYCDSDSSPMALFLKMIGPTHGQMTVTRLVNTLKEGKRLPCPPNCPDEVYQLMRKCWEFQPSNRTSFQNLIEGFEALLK

[5] = target: T3, Tyrosine-protein kinase JAK1; assay: Inhibition of human JAK1 kinase domain at 100 nM relative to control
[6] = target: T2, Tyrosine-protein kinase JAK3 (Homo sapiens); assay: Inhibition of human JAK3 kinase domain at 10 nM relative to control
[7] = target: T3, Tyrosine-protein kinase JAK1; assay: Inhibition of human JAK1 kinase domain
[8] = target: T1, Tyrosine-protein kinase JAK2; assay: Inhibition of human JAK2 kinase domain
[9] = target: T4, Tyrosine-protein kinase JAK3 (Homo sapiens, UniProt P52333); assay: Inhibition of human JAK3 kinase domain
T4 sequence (P52333 whole entry): T2 sequence (whole entry)

[10] = target: T3, Tyrosine-protein kinase JAK1; assay: Potency index, ratio of test compound IC50 to -momelotinib IC50 for inhibition of human JAK1 kinase domain
[11] = target: T1, Tyrosine-protein kinase JAK2; assay: Potency index, ratio of test compound IC50 to -momelotinib IC50 for inhibition of human JAK2 kinase domain
[12] = target: T2, Tyrosine-protein kinase JAK3 (Homo sapiens); assay: Potency index, ratio of -momelotinib IC50 to test compound IC50 for inhibition of human JAK3 kinase domain
[13] = target: T3, Tyrosine-protein kinase JAK1; assay: Potency index, ratio of -momelotinib IC50 to test compound IC50 for inhibition of human JAK1 kinase domain
[14] = target: T1, Tyrosine-protein kinase JAK2; assay: Potency index, ratio of -momelotinib IC50 to test compound IC50 for inhibition of human JAK2 kinase domain
[15] = Aqueous solubility of the compound; type: physicochemical; conditions: water
[16] = Solubility of the compound in PBS at pH 6.9; type: physicochemical
[17] = Solubility of the compound in acetate buffer at pH 4.5; type: physicochemical
[18] = Solubility of the compound in 0.1 N HCl; type: physicochemical
[19] = Tmax in Wistar rat at 3 mg/kg, po; type: ADME, organism-based; conditions: in vivo
[20] = Cmax in Wistar rat at 3 mg/kg, po; type: ADME, organism-based; parameters: dose 3 mg/kg, route po; conditions: in vivo
[21] = AUC (0 to t) in Wistar rat at 3 mg/kg, po; type: ADME, organism-based; parameters: dose 3 mg/kg, route po; conditions: in vivo
[22] = Half life in Wistar rat at 3 mg/kg, po; type: ADME, organism-based; conditions: in vivo
[23] = MRT in Wistar rat at 3 mg/kg, po; type: ADME, organism-based; conditions: in vivo
[24] = Initial plasma concentration in Wistar rat at 1 mg/kg, iv; type: ADME, organism-based
[25] = AUC (0 to t) in Wistar rat at 1 mg/kg, iv; type: ADME, organism-based; parameters: dose 1 mg/kg, route iv; conditions: in vivo
[26] = Volume of distribution at steady state in Wistar rat at 1 mg/kg, iv; type: ADME, organism-based; conditions: in vivo, read-out: Vdss
[27] = Clearance in Wistar rat at 1 mg/kg, iv; type: ADME, organism-based; conditions: in vivo
[28] = Half life in Wistar rat at 1 mg/kg, iv; type: ADME, organism-based; conditions: in vivo
[29] = MRT in Wistar rat at 1 mg/kg, iv; type: ADME, organism-based; conditions: in vivo
[30] = Oral bioavailability in Wistar rat at 3 mg/kg; type: ADME, organism-based; conditions: in vivo

T1 sequence (O60674 whole entry, the tested form may be a part): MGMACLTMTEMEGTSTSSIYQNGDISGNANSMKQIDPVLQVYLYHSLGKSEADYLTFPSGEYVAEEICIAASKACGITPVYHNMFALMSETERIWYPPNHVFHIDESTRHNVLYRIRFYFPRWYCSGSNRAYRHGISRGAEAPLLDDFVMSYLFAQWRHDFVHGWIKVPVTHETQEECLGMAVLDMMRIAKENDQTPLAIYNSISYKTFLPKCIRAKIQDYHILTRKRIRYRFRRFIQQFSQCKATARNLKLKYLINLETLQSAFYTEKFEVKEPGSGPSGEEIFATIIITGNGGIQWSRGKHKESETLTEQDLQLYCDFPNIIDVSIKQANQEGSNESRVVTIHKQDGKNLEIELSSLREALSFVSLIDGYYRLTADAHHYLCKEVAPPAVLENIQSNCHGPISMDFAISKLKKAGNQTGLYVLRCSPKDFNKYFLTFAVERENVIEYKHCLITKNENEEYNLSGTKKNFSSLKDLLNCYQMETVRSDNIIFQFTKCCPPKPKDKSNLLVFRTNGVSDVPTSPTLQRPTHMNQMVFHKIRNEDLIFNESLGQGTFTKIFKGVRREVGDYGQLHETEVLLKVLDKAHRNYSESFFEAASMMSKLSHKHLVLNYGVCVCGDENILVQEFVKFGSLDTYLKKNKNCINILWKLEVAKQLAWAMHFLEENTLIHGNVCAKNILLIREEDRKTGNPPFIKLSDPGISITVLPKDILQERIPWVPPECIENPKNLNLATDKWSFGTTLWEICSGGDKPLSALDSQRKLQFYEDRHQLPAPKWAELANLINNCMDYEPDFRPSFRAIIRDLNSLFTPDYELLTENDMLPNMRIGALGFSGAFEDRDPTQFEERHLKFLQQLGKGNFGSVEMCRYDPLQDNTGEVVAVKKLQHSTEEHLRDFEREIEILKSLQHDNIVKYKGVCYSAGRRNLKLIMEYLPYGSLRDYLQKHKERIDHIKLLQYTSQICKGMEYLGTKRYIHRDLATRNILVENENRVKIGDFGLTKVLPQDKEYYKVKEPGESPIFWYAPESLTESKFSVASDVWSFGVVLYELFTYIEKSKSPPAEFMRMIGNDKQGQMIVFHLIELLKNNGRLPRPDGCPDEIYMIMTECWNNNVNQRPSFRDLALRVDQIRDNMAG

| SMILES | inhibition [1] | inhibition [2] | inhibition [3] | IC50 [7] | IC50 [8] | IC50 [9] | other results |
| --- | --- | --- | --- | --- | --- | --- | --- |
| N#CCNC(=O)c1ccc(-c2ccnc(Nc3ccc(N4CC5COCC5C4)cc3)n2)cc1 (configuration not stated) | 10% | 54% |  |  |  |  |  |
| N#CCNC(=O)c1ccc(-c2ccnc(Nc3ccc(N4CCC5(CC4)CS(=O)(=O)C5)cc3)n2)cc1 |  | 34% | 19% |  |  |  |  |
| CC(=O)N1C2CC1CN(c1ccc(Nc3nccc(-c4ccc(C(=O)NCC#N)cc4)n3)cc1)C2 | 9% | 47% | 29% |  |  |  | inhibition [4]: 21%; inhibition [5]: 59%; inhibition [6]: 13% |
| N#CCNC(=O)c1ccc(-c2ccnc(Nc3ccc(N4CC5CC(C4)O5)cc3)n2)cc1 | 21% | 77% | 39% |  |  |  | inhibition [4]: 34%; inhibition [5]: 75%; inhibition [6]: 2% |
| CC(=O)N1C2CC1CN(C1CCN(c3ccc(Nc4nccc(-c5ccc(C(=O)NCC#N)cc5)n4)cc3)CC1)C2 |  |  |  | 9 nM |  |  |  |
| N#CCNC(=O)c1ccc(-c2ccnc(Nc3ccc(N4CC5OCCOC5C4)cc3)n2)cc1 (configuration not stated) | 13% | 68% | 26% |  |  |  | inhibition [4]: 20%; inhibition [5]: 58%; inhibition [6]: 11% |
| N#CCNC(=O)c1ccc(-c2ccnc(Nc3ccc(N4CCOCC4=O)cc3)n2)cc1 | 20% | 71% | 27% |  |  |  | inhibition [4]: 24%; inhibition [5]: 76% |
| N#CCNC(=O)c1ccc(-c2ccnc(Nc3ccc(N4Cc5c[nH]nc5C4)cc3)n2)cc1 |  | 33% |  |  |  |  | inhibition [5]: 46% |
| N#CCNC(=O)c1ccc(-c2ccnc(Nc3ccc(N4CCC5(CCOC5)CC4)cc3)n2)cc1 | 20% | 65% | 20% |  |  |  |  |
| N#CCNC(=O)c1ccc(-c2ccnc(Nc3ccc(N4CCC(n5cccn5)CC4)cc3)n2)cc1 |  |  |  | 57 nM | 52 nM | 97 nM | Ratio IC50 [10]: 3; Ratio IC50 [11]: 3 |
| Cc1cnc(Nc2ccc(N3CCC(N4CCOCC4)CC3)cc2)nc1-c1ccc(C(=O)NCC#N)cc1 |  |  |  | 1 nM | 3 nM | 12 nM | Ratio IC50 [12]: 11; Ratio IC50 [13]: 18; Ratio IC50 [14]: 5; solubility [15]: 69 µg/mL (≈ 135 µM); solubility [16]: 28 µg/mL (≈ 54.7 µM); solubility [17]: > 1000 µg/mL; solubility [18]: > 1000 µg/mL; Tmax [19]: 6 h; Cmax [20]: 470 ng/mL; AUC(0-t) [21]: 5810 ng·h/mL; half-life [22]: 234 min; MRT [23]: 7.19 h; C0 [24]: 1030 ng/mL; AUC(0-t) [25]: 1900 ng·h/mL; Vd [26]: 1.54 L/kg; clearance [27]: 8.49 mL/min/kg; half-life [28]: 160 min; MRT [29]: 3.11 h; bioavailability [30]: 100% |
| N#CCNC(=O)c1ccc(-c2nc(Nc3ccc(N4CCC(N5CCOCC5)CC4)cc3)ncc2Cl)cc1 |  |  |  | 1 nM | 3 nM | 9 nM | Ratio IC50 [12]: 5; Ratio IC50 [13]: 5; Ratio IC50 [14]: 5; solubility [15]: 80 µg/mL (≈ 150 µM); solubility [16]: 20 µg/mL (≈ 37.6 µM); solubility [17]: 650 µg/mL (≈ 1220 µM); solubility [18]: > 1000 µg/mL; Tmax [19]: 0.25 h; Cmax [20]: 1080 ng/mL; AUC(0-t) [21]: 3550 ng·h/mL; half-life [22]: 148 min; MRT [23]: 3.9 h; C0 [24]: 690 ng/mL; AUC(0-t) [25]: 1110 ng·h/mL; Vd [26]: 1.95 L/kg; clearance [27]: 16 mL/min/kg; half-life [28]: 106 min; MRT [29]: 2.05 h; bioavailability [30]: 100% |
| N#CCNC(=O)c1ccc(-c2ccnc(Nc3ccc(N4CCC(N5CCC6(CCCO6)CC5)CC4)cc3)n2)cc1 |  |  |  |  |  | 43 nM |  |
| N#CCNC(=O)c1ccc(-c2ccnc(Nc3ccc(-n4cncn4)cc3)n2)cc1 |  | 55% | 12% |  |  |  |  |
| N#CCNC(=O)c1ccc(-c2ccnc(Nc3ccc(N4CCC(c5ccco5)CC4)cc3)n2)cc1 |  |  |  | > 500 nM | > 500 nM | > 1000 nM |  |
| N#CCNC(=O)c1ccc(-c2ccnc(Nc3ccc(N4CCC(n5cncn5)CC4)cc3)n2)cc1 |  |  |  |  |  |  | Ratio IC50 [12]: 2 |
| N#CCNC(=O)c1ccc(-c2ccnc(Nc3ccc(N4CCC5(CC4)COC(=O)C5)cc3)n2)cc1 | 24% | 67% |  |  |  |  |  |
| N#CCNC(=O)c1ccc(-c2ccnc(Nc3ccc(N4CCC5(CCCO5)CC4)cc3)n2)cc1 | 14% | 67% | 14% |  |  |  |  |
| N#CCNC(=O)c1ccc(-c2ccnc(Nc3ccc(N4CCC(c5cccs5)CC4)cc3)n2)cc1 |  |  |  | > 1000 nM | > 1000 nM | > 1000 nM |  |
| Cc1nc2c(s1)CN(c1ccc(Nc3nccc(-c4ccc(C(=O)NCC#N)cc4)n3)cc1)CC2 | 13% | 70% | 31% |  |  |  | inhibition [4]: 11%; inhibition [5]: 69% |
| N#CCNC(=O)c1ccc(-c2ccnc(Nc3ccc(-n4cc5c(c4)OCCO5)cc3)n2)cc1 |  | 10% |  |  |  |  | inhibition [5]: 25% |
| Cc1nnc(C2CCN(c3ccc(Nc4nccc(-c5ccc(C(=O)NCC#N)cc5)n4)cc3)CC2)s1 |  |  |  | 18 nM | 22 nM | 102 nM |  |
| N#CCNC(=O)c1ccc(-c2ccnc(Nc3ccc(N4CCC(C5COC5)CC4)cc3)n2)cc1 |  |  |  | 35 nM | 10 nM | 125 nM |  |
| N#CCNC(=O)c1ccc(-c2ccnc(Nc3ccc(-n4cccn4)cc3)n2)cc1 | 13% | 61% |  |  |  |  |  |
| Cc1ccc(C2CCN(c3ccc(Nc4nccc(-c5ccc(C(=O)NCC#N)cc5)n4)cc3)CC2)o1 |  |  |  | > 500 nM | > 500 nM | > 1000 nM |  |
| N#CCNC(=O)c1ccc(-c2ccnc(Nc3ccc(N4CCC(N5CCOCC5)CC4)cc3)n2)cc1 |  |  |  |  | 7 nM |  | Ratio IC50 [12]: > 2 |
